Data taken from patent US11090266B2, “Nanoliposomal c-MYC-siRNA inhibits in vivo tumor growth of cisplatin-resistant ovarian cancer” (priority 2014, dated 2021).

Test system: A2780CP20 tumors
Experiment: Therapeutic efficacy in A2780CP20 tumor-bearing nude mice
Format: in vivo
Conditions: siRNA-DOPC 5 μg siRNA/injection, CIS 160 μg/injection, i.p. once a week for 4 weeks
Protocol: c-MYC was overexpressed in cells with low c-MYC levels (A2780) (FIG. 16A). The rate of cell proliferation of these cells were higher compared with empty vectors (FIG. 16B). The effect of nanoliposomal-c-MYC-siRNA was tested on target depletion, and therapy efficacy. Nude mice were injected intraperitoneally (i.p.) with A2780CP20 cells. A nude mice-bearing tumors were injected i.p. with nanoliposomal siRNAs. Seven days post-injection, mice were sacrificed and the tumors were dissected. As shown is FIG. 18A, the anti-tumor effects of nanoliposomal-c-MYC-siRNA as compared to C-siRNA were tested in tumor-bearing mice. […] All nanoliposomal-c-MYC-siRNAs and CIS treatments were injected i.p. once a week for 4 weeks. In vitro experiments were repeated in HEYA8 ovarian cancer cells which express high c-MYC levels (FIG. 19A-19D). Additional liposomal c-MYc-siRNA formulation was performed (FIG. 20A-20D) and FIGS. 22 and 23). […]
As shown in FIG. 16A-16B the directed effect effects of c-MYC overexpression in ovarian cancer cells. […] Cell viability was calculated. […]
DOPC-PEG-cholesterol-based nanoliposomes were used for in vivo c-MYC-siRNA delivery. First, we assessed whether the c-MYC silencing in vivo. […] Tumor weight and number of nodules were assessed in five treatment groups (10 mice each): (a) C-siRNA, (b) cisplatin (CIS) alone, (c) c-MYC-siRNA, (d) C-siRNA plus CIS, and (e) c-MYC-siRNA plus CIS. […]

N.N.[Cl][Pt][Cl] [CIS, cisplatin]
tumor weight / tumor growth: did not induce a significant effect on tumor growth
